# Test results: ChEMBL document CHEMBL5316344, “Homologation of the Alkyl Side Chain of Antimitotic Phenyl 4-(2-Oxo-3-alkylimidazolidin-1-yl)benzenesulfonate Prodrugs Selectively Targeting CYP1A1-Expressing Breast Cancers Improves Their Stability in Rodent Liver Microsomes” (J Med Chem, 2023)
# The source made the active and inactive calls. No cut-off for these calls is given here.
# What was measured:
# MCF7 [1] = assay: Antiproliferative activity against human MCF7 cells expressing CYP1A1 assessed as cell growth inhibition incubated for 48 hrs by sulforhodamine B assay; format: functional, cell-based; settings: MCF7, 48 h
# HT-29 = assay: Antiproliferative activity against human HT-29 cells assessed as cell growth inhibition incubated for 48 hrs by sulforhodamine B assay; format: functional, cell-based; settings: HT-29, 48 h
# M21 = assay: Antiproliferative activity against human M21 cells assessed as cell growth inhibition incubated for 48 hrs by sulforhodamine B assay; format: functional, cell-based; settings: M21, 48 h
# [2] = Selectivity ratio, ratio of IC50 for antiproliferative activity against human HT-29 cells to IC50 for antiproliferative activity against human MCF7 cells expressing CYP1A1; format: functional
# [3] = Selectivity ratio, ratio of IC50 for antiproliferative activity against human M21 cells to IC50 for antiproliferative activity against human MCF7 cells expressing CYP1A1; format: functional
# [4] = Stability in human liver microsomes assessed as half life incubated for 60 mins by HPLC analysis; format: ADME, Microsome
# [5] = Stability in mouse liver microsomes assessed as half life incubated for 60 mins by HPLC analysis; format: ADME, Microsome
# [6] = Stability in rat liver microsomes assessed as half life incubated for 60 mins by HPLC analysis; format: ADME, Microsome
# [7] = Stability in human liver microsomes assessed as intrinsic clearance incubated for 60 mins by HPLC analysis; format: ADME, Microsome; settings: read-out: CLH
# [8] = Stability in mouse liver microsomes assessed as intrinsic clearance incubated for 60 mins by HPLC analysis; format: ADME, Microsome; settings: read-out: CLH
# [9] = Stability in rat liver microsomes assessed as intrinsic clearance incubated for 60 mins by HPLC analysis; format: ADME, Microsome; settings: read-out: CLH
# Cytochrome P450 1A1 [10] = target: T1, Cytochrome P450 1A1 (Homo sapiens, UniProt P04798); assay: Binding affinity to human CYP1A1 assessed as inhibition of conversion of 7-ethoicyresorufin into fluorescent resorufin by measuring inhibition constant preincubated for 5 mins followed by […] addition measured every minute for 15 mins by EROD assay; format: ADME
# T1 sequence (P04798 whole entry): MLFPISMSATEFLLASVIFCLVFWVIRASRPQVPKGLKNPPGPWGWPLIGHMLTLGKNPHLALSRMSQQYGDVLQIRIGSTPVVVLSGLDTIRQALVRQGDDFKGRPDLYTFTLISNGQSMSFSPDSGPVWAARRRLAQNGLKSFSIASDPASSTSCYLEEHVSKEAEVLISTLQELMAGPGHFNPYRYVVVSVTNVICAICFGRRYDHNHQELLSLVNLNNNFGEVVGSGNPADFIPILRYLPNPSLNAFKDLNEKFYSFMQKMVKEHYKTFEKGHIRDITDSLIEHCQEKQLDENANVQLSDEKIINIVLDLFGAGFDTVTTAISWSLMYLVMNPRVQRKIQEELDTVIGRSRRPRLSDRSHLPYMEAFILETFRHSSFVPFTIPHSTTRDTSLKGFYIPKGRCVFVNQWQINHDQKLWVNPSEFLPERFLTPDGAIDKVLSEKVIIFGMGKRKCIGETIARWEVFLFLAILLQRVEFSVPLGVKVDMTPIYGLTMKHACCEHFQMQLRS
# HT-1080 [11] = assay: Antiproliferative activity against human HT-1080 cells expressing CYP1A1 assessed as cell growth inhibition incubated for 48 hrs by sulforhodamine B assay; format: functional, cell-based; settings: HT-1080, 48 h
# HT-1080 [12] = assay: Antiproliferative activity against human HT-1080 cells transfected with empty vector assessed as cell growth inhibition incubated for 48 hrs by sulforhodamine B assay; format: functional, cell-based; settings: HT-1080, 48 h
# HT-1080 [13] = assay: Antiproliferative activity against human HT-1080 cells assessed as cell growth inhibition incubated for 48 hrs by sulforhodamine B assay; format: functional, cell-based; settings: HT-1080, 48 h
# [14] = Selectivity ratio, ratio of IC50 for antiproliferative activity against human HT-1080 cells transfected with empty vector to IC50 for antiproliferative activity against human HT-1080 cells expressing CYP1A1; format: functional
# [15] = Selectivity ratio, ratio of IC50 for antiproliferative activity against human HT-1080 cells to IC50 for antiproliferative activity against human HT-1080 cells expressing CYP1A1; format: functional
# MDA-MB-231 = assay: Antiproliferative activity against ER/PR/HER2-negative human MDA-MB-231 cells assessed as cell growth inhibition incubated for 72 hrs by sulforhodamine B assay; format: functional, cell-based; settings: MDA-MB-231, 72 h
# MDA-MB-468 = assay: Antiproliferative activity against ER/PR/HER2-negative human MDA-MB-468 cells assessed as cell growth inhibition incubated for 72 hrs by sulforhodamine B assay; format: functional, cell-based; settings: MDA-MB-468, 72 h
# T47D = assay: Antiproliferative activity against ER/PR-positive HER2-negative human T47D cells assessed as cell growth inhibition incubated for 72 hrs by sulforhodamine B assay; format: functional, cell-based
# SK-BR-3 = assay: Antiproliferative activity against ER/PR-negative HER2-positive human SK-BR-3 cells assessed as cell growth inhibition incubated for 72 hrs by sulforhodamine B assay; format: functional, cell-based; settings: SK-BR-3, 72 h
# MCF7 [16] = assay: Antiproliferative activity against […] human MCF7 cells assessed as cell growth inhibition incubated for 72 hrs by sulforhodamine B assay; format: functional, cell-based; settings: MCF7, 72 h
# [17] = Selectivity ratio, ratio of IC50 for antiproliferative activity against ER/PR/HER2-negative human MDA-MB-231 cells to IC50 for antiproliferative activity against ER/PR/HER2-negative human MDA-MB-468 cells; format: functional
# [18] = Selectivity ratio, ratio of IC50 for antiproliferative activity against ER/PR/HER2-negative human MDA-MB-231 cells to IC50 for antiproliferative activity against ER/PR-positive HER2-negative human T47D cells; format: functional
# [19] = Selectivity ratio, ratio of IC50 for antiproliferative activity against ER/PR/HER2-negative human MDA-MB-231 cells to IC50 for antiproliferative activity against ER/PR-negative HER2-positive human SK-BR-3 cells; format: functional
# [20] = Selectivity ratio, ratio of IC50 for antiproliferative activity against ER/PR/HER2-negative human MDA-MB-231 cells to IC50 for antiproliferative activity against […] human MCF7 cells; format: functional
# MCF7 [21] = assay: Induction of cell cycle arrest in human MCF7 cells expressing CYP1A1 assessed as accumulation of cells at G2/M phase at 50 nM incubated for 48 hrs by DAPI staining based flow cytometric analysis (reference value: 16+/-2 %); format: functional
# MCF7 [22] = assay: Induction of cell cycle arrest in human MCF7 cells expressing CYP1A1 assessed as accumulation of cells at S phase at 50 nM incubated for 48 hrs by DAPI staining based flow cytometric analysis (reference value: 11+/-1 %); format: functional
# MCF7 [23] = assay: Induction of cell cycle arrest in human MCF7 cells expressing CYP1A1 assessed as accumulation of cells at G0/G1 phase at 50 nM incubated for 48 hrs by DAPI staining based flow cytometric analysis (reference value: 74+/-2 %); format: functional
# Tubulin (Homo sapiens) = Tubulin (Homo sapiens) (UniProt P68371+Q9H4B7+P0DPH7+P68366+Q13509+Q71U36+P04350+Q3ZCM7+P07437+P68363+Q9BQE3+Q6PEY2+Q13885+Q9BVA1+Q9BUF5); assay: Disruption of microtubules in human MCF7 cells expressing CYP1A1 assessed as cytoskeleton disruption at 840 nM measured after 48 hrs by DAPI staining based fluorescence microscopic analysis; format: cell-based
# HT-1080 [24] = assay: Antitumor activity against human HT-1080 cells xenografted in chick embryo assessed as reduction in tumor wet weight at 1 ug, iv incubated for 17 days by CAM assay; format: functional; parameters: scale not given: the % may be the effect or the level left; settings: dose 1 µg, time 17 day
# HT-1080 [25] = assay: Antitumor activity against human HT-1080 cells transfected with empty vector xenografted in chick embryo assessed as reduction in tumor wet weight at 1 ug, iv incubated for 17 days by CAM assay; format: functional; parameters: scale not given: the % may be the effect or the level left; settings: dose 1 µg, time 17 day
# HT-1080 [26] = assay: Antitumor activity against human HT-1080 cells expressing CYP1A1 xenografted in chick embryo assessed as reduction in tumor wet weight at 1 ug, iv incubated for 17 days by CAM assay; format: functional; parameters: scale not given: the % may be the effect or the level left; settings: dose 1 µg, time 17 day
# [27] = Toxicity in chick embryo xenografted with human […] cells assessed as mortality at 1 ug, iv incubated for 17 days; format: organism-based, Gallus gallus; settings: chicken, in vivo, 408 h, dose 1 µg, time 17 day
# [28] = Toxicity in chick embryo xenografted with human […] cells transfected with empty vector assessed as mortality at 1 ug, iv incubated for 17 days; format: organism-based, Gallus gallus; settings: chicken, in vivo, 408 h, dose 1 µg, time 17 day
# [29] = Toxicity in chick embryo xenografted with human […] cells expressing CYP1A1 assessed as mortality at 1 ug, iv incubated for 17 days; format: organism-based, Gallus gallus; settings: chicken, in vivo, 408 h, dose 1 µg, time 17 day
# Cytochrome P450 1A1 [30] = target: T1, Cytochrome P450 1A1; assay: Prodrug conversion assessed as human CYP1A1-mediated CEU-602 formation incubated for 15 mins in presence of NADPH by HPLC analysis; format: ADME; settings: recombinant enzyme, 0.25 h
smiles,measurement,setting,value
CCCCCN1CCN(c2ccc(S(=O)(=O)Oc3cc(OC)c(OC)c(OC)c3)cc2)C1=O,IC50,MCF7 [1],200 nM
same,IC50,HT-29,> 12500 nM
same,IC50,M21,> 12500 nM
same,Ratio IC50,[2],>63
same,Ratio IC50,[3],>63
same,half-life,[4],57 min
same,half-life,[5],18.9 min
same,half-life,[6],125 min
same,microsomal CLint,[7],24.3 µL/min/mg
same,microsomal CLint,[8],74 µL/min/mg
same,microsomal CLint,[9],11.1 µL/min/mg
same,Ki,Cytochrome P450 1A1 [10],1400 nM
same,IC50,HT-1080 [11],30 nM
same,IC50,HT-1080 [12],5900 nM
same,IC50,HT-1080 [13],4440 nM
same,Ratio IC50,[14],197
same,Ratio IC50,[15],148
same,IC50,MDA-MB-231,8600 nM
same,IC50,MDA-MB-468,21 nM
same,IC50,T47D,1000 nM
same,IC50,SK-BR-3,3.2 nM
same,IC50,MCF7 [16],38 nM
same,Ratio IC50,[17],410
same,Ratio IC50,[18],8.6
same,Ratio IC50,[19],2700
same,Ratio IC50,[20],230
same,Activity,MCF7 [21],42%
same,Activity,MCF7 [22],14%
same,Activity,MCF7 [23],44%
same,Activity,Tubulin (Homo sapiens),Active
same,Activity,HT-1080 [24],82%
same,Activity,HT-1080 [25],93%
same,Activity,HT-1080 [26],62%
same,Activity,[27],Non-Toxic
same,Activity,[28],Non-Toxic
same,Activity,[29],Non-Toxic
same,Drug metabolism,Cytochrome P450 1A1 [30],Metabolite_Detected
